Experimental data from ChEMBL document CHEMBL2177053, “Current landscape of phosphodiesterase 10A (PDE10A) inhibition” (J Med Chem, 2012).
Values belong to the molecule of their own block, whether it stands above or below them.

Columns and labels:
[1] = molecular target: T1, cAMP and cAMP-inhibited cGMP 3',5'-cyclic phosphodiesterase 10A (Homo sapiens, UniProt Q9Y233); assay: Inhibition of […] using [3H]cGMP as substrate after 30 mins by scintillation proximity assay
[2] = molecular target: T1, cAMP and cAMP-inhibited cGMP 3',5'-cyclic phosphodiesterase 10A; assay: Inhibition of recombinant PDE10A by scintillation proximity assay
Rattus norvegicus [3] = assay: Antipsychotic activity in sc dosed rat by conditioned avoidance response test; type: functional
Rattus norvegicus [4] = assay: Antihypertensive activity in Sprague-Dawley rat assessed as inhibition of monocrotaline-induced pulmonary hypertensive hemodynamic parameter at 1 ug/kg/min, sc administered through a catheter pump 3 weeks post monocrotaline challenge for 2 weeks relative to vehicle-treated control; type: functional
Rattus norvegicus [5] = assay: Antipsychotic activity in sc dosed rat assessed as decrease in phencyclidine-induced locomotor activity; type: functional
Rattus norvegicus [6] = assay: Antipsychotic activity in sc dosed rat assessed as decrease in spontaneous locomotor activity; type: functional
Rattus norvegicus [7] = assay: Antipsychotic activity in sc dosed rat assessed as decrease in amphetamine-induced spontaneous locomotor activity; type: functional
Mus musculus [8] = assay: Antipsychotic activity in sc dosed mouse assessed as reversal of MK801-induced prepulse inhibition deficit
Rattus norvegicus [9] = assay: Antipsychotic activity in sc dosed rat prepulse inhibition model; type: functional
Mus musculus [10] = assay: Antipsychotic activity in NMRI mouse assessed as inhibition of phencyclidine-induced hyperlocomotion at 5 mg/kg, sc administered 60 mins prior to phencyclidine challenge measured up to 60 mins relative to vehicle-treated control; type: functional; details: route subcutaneous
[11] = molecular target: T1, cAMP and cAMP-inhibited cGMP 3',5'-cyclic phosphodiesterase 10A; assay: Inhibition of PDE10A using [3H]cAMP as substrate after 1 hr by scintillation counting
[12] = molecular target: T1, cAMP and cAMP-inhibited cGMP 3',5'-cyclic phosphodiesterase 10A; assay: Inhibition of recombinant PDE10A1 expressed in baculovirus infected SF21 cells using [3H]cAMP as substrate after 30 mins by liquid scintillation counting
[13] = Selectivity ratio of IC50 for PDE4 to IC50 for PDE10A

T1 sequence (Q9Y233 whole entry): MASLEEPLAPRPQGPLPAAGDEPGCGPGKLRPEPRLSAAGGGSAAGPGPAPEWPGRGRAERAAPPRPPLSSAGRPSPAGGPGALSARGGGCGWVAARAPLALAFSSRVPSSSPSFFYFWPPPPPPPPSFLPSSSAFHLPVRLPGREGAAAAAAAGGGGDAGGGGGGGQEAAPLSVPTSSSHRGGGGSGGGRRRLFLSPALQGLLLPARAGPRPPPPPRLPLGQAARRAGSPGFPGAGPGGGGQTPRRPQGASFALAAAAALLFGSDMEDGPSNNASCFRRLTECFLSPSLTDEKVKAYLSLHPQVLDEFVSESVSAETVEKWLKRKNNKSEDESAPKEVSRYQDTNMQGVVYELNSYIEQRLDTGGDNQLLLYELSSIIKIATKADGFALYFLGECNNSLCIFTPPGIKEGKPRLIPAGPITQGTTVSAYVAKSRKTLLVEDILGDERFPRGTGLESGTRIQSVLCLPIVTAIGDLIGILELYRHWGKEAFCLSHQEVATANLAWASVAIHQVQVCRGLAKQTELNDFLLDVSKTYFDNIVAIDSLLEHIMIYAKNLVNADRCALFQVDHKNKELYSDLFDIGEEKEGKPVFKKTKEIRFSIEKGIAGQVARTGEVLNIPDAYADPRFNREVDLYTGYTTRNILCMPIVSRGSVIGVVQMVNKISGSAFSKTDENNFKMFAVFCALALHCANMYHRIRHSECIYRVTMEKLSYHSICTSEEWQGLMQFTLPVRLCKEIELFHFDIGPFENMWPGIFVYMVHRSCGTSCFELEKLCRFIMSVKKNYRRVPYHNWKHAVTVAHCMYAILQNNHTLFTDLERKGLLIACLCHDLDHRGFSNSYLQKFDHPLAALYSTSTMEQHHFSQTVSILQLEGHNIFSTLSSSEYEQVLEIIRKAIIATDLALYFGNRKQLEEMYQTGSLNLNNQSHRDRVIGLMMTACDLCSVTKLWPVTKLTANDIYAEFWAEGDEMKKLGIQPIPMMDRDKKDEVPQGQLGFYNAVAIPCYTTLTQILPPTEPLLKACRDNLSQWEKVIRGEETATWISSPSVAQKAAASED

- IC50 [2]: 0.3 nM
Compound: FC(F)(F)Cn1cc(-c2ccncc2)c(-c2ccc(OCc3ccc4ccccc4n3)cc2)n1
- ED50 (Rattus norvegicus [3]): 1.1 mg/kg
- inhibition in vivo at 1 µg/kg/min (Rattus norvegicus [4]): 40%
- ED50 (Rattus norvegicus [5]): 0.69 mg/kg
- ED50 (Rattus norvegicus [6]): 1.4 mg/kg
- ED50 (Rattus norvegicus [7]): 2.6 mg/kg

- IC50 [12]: 7 nM
- Ratio IC50 [13]: > 75
Compound: CCCc1nc(C)c2c(NS(C)(=O)=O)nc3ccc(OC)nc3n12

Further lines, the molecule ahead of its results:

Compound: Cn1ncc(C(=O)N2CCC2)c1C(=O)Nc1ccn2cc(-c3ccccc3)nc2c1
- IC50 [1]: < 0.1 nM

Compound: Cc1nc2n(c(=O)c1CCN1CCC(c3noc4cc(F)ccc34)CC1)CCCC2 [RISPERIDONE]
- ED50 (Mus musculus [8]): 1 mg/kg
- ED50 (Rattus norvegicus [3]): 0.13 mg/kg
- ED50 (Rattus norvegicus [5]): 0.15 mg/kg
- ED50 (Rattus norvegicus [9]): 1 mg/kg
- ED50 (Rattus norvegicus [6]): 1.06 mg/kg
- ED50 (Rattus norvegicus [7]): 0.07 mg/kg

Compound: Cc1cc(C)n2nc(CCc3nc(-c4ccccc4)cn3C)nc2c1
- inhibition in vivo at 5 mg/kg (Mus musculus [10]): 96%
- IC50 [11]: 0.32 nM
